Laboratory results published in paper PMC11954145, “Antimicrobial and ADME properties of methoxylated, methylated and nitrated 2-hydroxynaphthalene-1 carboxanilides” (ADMET & DMPK, 2025).
≈ marks a conversion by molar mass, not a printed value. Where “and” joins values, the source holds several entries; their conditions need not be identical. Equal entries are not always repeated. Where two headings read alike, the source gives them in different places.

Tests used:
[1] = Lipophilicity determination by RP-HPLC (log k, log D); format: physicochemical; settings: for log D6.5: RP-HPLC C18, MeOH 72 % / acetate-buffered saline pH 6.5; for log D7.4: RP-HPLC C18, MeOH 72 % / acetate-buffered saline pH 7.4; for log k (logarithm of the capacity factor): RP-HPLC C18, MeOH 72 % / water 28 %
Excerpt: An HPLC system Agilent 1200 equipped with a DAD detector (Agilent, Santa Clara, CA, USA) was used. A chromatographic column Symmetry® C18 5 μm, 4.6×250 mm, part No. WAT054275 (Waters Corp., Milford, MA, USA) was used. The HPLC separation process was monitored and evaluated with EZChrom Elite software ver. 3.3.2 (Agilent). Isocratic elution by a mixture of MeOH p.a. (72 %) and H2O-HPLC Mili-Q grade (28 %) as a mobile phase was used for the determination of capacity factor k. Isocratic elution by a mixture of MeOH p.a. (72 %) and acetate-buffered saline (pH 7.4 and pH 6.5) (28 %) as a mobile phase was used for the determination of distribution coefficients expressed as D7.4 and D6.5. The total flow of the column was 1.0 mL min^-1, the injection volume was 20 μL, the column temperature was 40 °C, and the sample temperature was 10 °C. The detection wavelength of 210 nm was chosen. A KI methanolic solution was used to determine the dead times (tD). Retention times (tR) were measured in minutes. The capacity factors k were calculated according to the formula k = (tR–tD)/tD, where tR is the retention time of the solute, and tD is the dead time obtained using an unretained analyte. The distribution coefficients DpH were calculated according to the formula DpH = (tR–tD)/tD. Each experiment was repeated three times.
The capacity factor and distribution coefficients were measured by RP-HPLC on a C18 column with methanol as an organic modifier of the mobile phase. In addition to the experimental lipophilicities, predicted log P values were also calculated using ACD/Percepta, see Table 1. […] The values of σ(Ar) are found in a wide range from 0.01 to 1.36, so the compounds contain substituents with both electron-donating and slightly electron-withdrawing properties.

S. aureus ATCC 29213 = experiment: Antibacterial screening, broth microdilution MIC; format: cell-based; settings: Staphylococcus aureus, ATCC29213; ATCC 29213, 24 h at 37 °C; read-out: MIC S. aureus
MRSA 63718 = experiment: Antibacterial screening, broth microdilution MIC; format: cell-based, methicillin-resistant S. aureus; settings: Staphylococcus aureus, read-out: MIC MRSA 63718
MRSA SA 630 = experiment: Antibacterial screening, broth microdilution MIC; format: cell-based, methicillin-resistant S. aureus; settings: Staphylococcus aureus, clinical isolate, 24 h at 37 °C, read-out: MIC MRSA SA 630
MRSA SA 3202 = experiment: Antibacterial screening, broth microdilution MIC; format: cell-based, methicillin-resistant S. aureus; settings: Staphylococcus aureus, clinical isolate, 24 h at 37 °C, read-out: MIC MRSA SA 3202
[2] = tested on: Enterococcus faecalis ATCC 29212; experiment: Antibacterial screening, broth microdilution MIC; format: cell-based; settings: ATCC29212, ATCC 29212, 24 h at 37 °C, read-out: MIC E. faecalis
VRE 342B = experiment: Antibacterial screening, broth microdilution MIC; format: cell-based, vancomycin-resistant E. faecalis; settings: Enterococcus, vanA isolate, 24 h at 37 °C, read-out: MIC VRE 342B
VRE 725B = experiment: Antibacterial screening, broth microdilution MIC; format: cell-based, vancomycin-resistant E. faecalis; settings: Enterococcus, vanA isolate, 24 h at 37 °C, read-out: MIC VRE 725B
VRE 368 = experiment: Antibacterial screening, broth microdilution MIC; format: cell-based, vancomycin-resistant E. faecalis; settings: Enterococcus, vanA isolate, 24 h at 37 °C, read-out: MIC VRE 368
E. coli ATCC 25922 = experiment: Antibacterial screening, broth microdilution MIC; format: cell-based; settings: Escherichia coli, ATCC25922; ATCC 25922, 24 h at 37 °C
[3] = tested on: Mycobacterium tuberculosis ATCC 25177/H37Ra; experiment: Antimycobacterial screening, broth dilution MIC (Alamar blue); format: cell-based; settings: 336 h, H37Ra, 14 days at 37 °C, Alamar blue, read-out: MIC M. tuberculosis
Method: The evaluation of in vitro antimycobacterial activity of the compounds was performed against Mycobacterium tuberculosis ATCC 25177/H37Ra, Mycobacterium kansasii DSM 44162 and Mycobacterium smegmatis ATCC 700084.
The broth dilution micro-method in Middlebrook 7H9 medium (Difco, Lawrence, KS, USA) supplemented with ADC Enrichment (Difco) was used to determine the minimum inhibitory concentration (MIC) as previously described. […] The final concentrations of the evaluated compounds, ranging from 256 to 0.125 μg mL^-1, were obtained by twofold serial dilution of the stock solution in a microtiter plate with a sterile medium. Bacterial inocula were prepared by transferring colonies from culture to sterile water. The plate was inoculated by tested microorganisms. The final concentration of bacterial cells was 1.5×10^6 for M. tuberculosis and 10^5 cells in a microtiter plate for other mycobacteria. Isoniazid and rifampicin (Sigma) were used as reference antimycobacterial drugs. Drug-free controls, sterility controls, and controls consisting of medium and DMSO alone were included. The plates were incubated for a defined time at an appropriate temperature (3 days at 37 °C for M. smegmatis, and 14 days at 37 °C for M. tuberculosis and M. kansasii). […] The MICs against M. tuberculosis were evaluated by Alamar blue (Oxoid). After incubation, 10 % of Alamar blue was added to each well, and the plate was incubated for 24 h. The MIC values were assessed as the lowest concentration of the tested compounds, which prevented changing blue resazurin to pink resorufin. The experiments were repeated three times. The minimum inhibitory concentrations (MICs) were defined as the lowest concentration of the compound at which no visible bacterial growth was observed. The MIC value is routinely and widely used in bacterial assays and is a standard detection limit according to the CLSI [60].

[4] = tested on: Mycobacterium kansasii DSM 44162; experiment: Antimycobacterial screening, broth dilution MIC; format: cell-based; settings: DSM44162, 336 h, read-out: MIC M. kansasii
[5] = tested on: Mycobacterium smegmatis ATCC 700084; experiment: Antimycobacterial screening, broth dilution MIC; format: cell-based; settings: Mycolicibacterium smegmatis, ATCC700084, 72 h, read-out: MIC M. smegmatis
[6] = clinical isolate, 24 h at 37 °C

SMILES | log D6.5 [1] | log D7.4 [1] | log k (logarithm of the capacity factor) [1] | MIC (S. aureus ATCC 29213) | MIC (MRSA 63718; 24 h) | MIC (MRSA SA 630) | MIC (MRSA SA 3202) | MIC [2] | MIC (VRE 342B) | MIC (VRE 725B) | MIC (VRE 368) | MIC (E. coli ATCC 25922) | MIC [3] | MIC [4] | MIC [5] | MIC (MRSA 63718; [6]) | MIC ([5]; ATCC 700084, 3 days at 37 °C) | MIC ([4]; DSM 44162, 14 days at 37 °C)
COc1ccc(C)c(NC(=O)c2c(O)ccc3ccccc23)c1 [Compound 17, 2-Hydroxy-N-(5-methoxy-2-methylphenyl)naphthalene-1-carboxamide] | 0.1047 | 0.1113 | 0.0892 | 104 µM (≈ 32 µg/mL) | 416 µM (≈ 128 µg/mL) | 208 µM (≈ 63.9 µg/mL) | 208 µM (≈ 63.9 µg/mL) | 833 µM (≈ 256 µg/mL) | 833 µM (≈ 256 µg/mL) | 833 µM (≈ 256 µg/mL) | 833 µM (≈ 256 µg/mL) | 833 µM (≈ 256 µg/mL) | 416 µM (≈ 128 µg/mL) | 833 µM (≈ 256 µg/mL) | 416 µM (≈ 128 µg/mL) |  |  | 
COc1ccc(Cl)c(NC(=O)c2c(O)ccc3ccccc23)c1 [Compound 18, N-(2-Chloro-5-methoxyphenyl)-2-hydroxynaphthalene-1-carboxamide] | 0.4607 | 0.4593 | 0.46 and 0.4635 | 48.8 µM (≈ 16 µg/mL) |  | 48.8 µM (≈ 16 µg/mL) | 97.6 µM (≈ 32 µg/mL) | 781 µM (≈ 256 µg/mL) | 781 µM (≈ 256 µg/mL) | 781 µM (≈ 256 µg/mL) | 781 µM (≈ 256 µg/mL) | 781 µM (≈ 256 µg/mL) | 391 µM (≈ 128 µg/mL) | 391 µM (≈ 128 µg/mL) |  | 195 µM (≈ 63.9 µg/mL) | 781 µM (≈ 256 µg/mL) | 
COc1ccc(Br)cc1NC(=O)c1c(O)ccc2ccccc12 [Compound 19, N-(5-Bromo-2-methoxyphenyl)-2-hydroxynaphthalene-1-carboxamide] | 0.5836 | 0.5835 | 0.5845 | 688 µM (≈ 256 µg/mL) |  | 688 µM (≈ 256 µg/mL) | 688 µM (≈ 256 µg/mL) | 688 µM (≈ 256 µg/mL) | 688 µM (≈ 256 µg/mL) | 688 µM (≈ 256 µg/mL) | 688 µM (≈ 256 µg/mL) | 688 µM (≈ 256 µg/mL) | 344 µM (≈ 128 µg/mL) |  |  | 688 µM (≈ 256 µg/mL) | 688 µM (≈ 256 µg/mL) | 688 µM (≈ 256 µg/mL)
COc1ccc(C(F)(F)F)cc1NC(=O)c1c(O)ccc2ccccc12 [Compound 20, 2-Hydroxy-N-[2-methoxy-5-(trifluoromethyl)phenyl]naphthalene-1-carboxamide] | 0.5323 | 0.5305 | 0.5335 | 709 µM (≈ 256 µg/mL) |  | 709 µM (≈ 256 µg/mL) | 709 µM (≈ 256 µg/mL) | 709 µM (≈ 256 µg/mL) | 709 µM (≈ 256 µg/mL) | 709 µM (≈ 256 µg/mL) | 709 µM (≈ 256 µg/mL) | 709 µM (≈ 256 µg/mL) | 354 µM (≈ 128 µg/mL) |  |  | 709 µM (≈ 256 µg/mL) | 709 µM (≈ 256 µg/mL) | 709 µM (≈ 256 µg/mL)
COc1ccc(NC(=O)c2c(O)ccc3ccccc23)cc1C(F)(F)F [Compound 21, 2-Hydroxy-N-[4-methoxy-3-(trifluoromethyl)phenyl]naphthalene-1-carboxamide] | 0.1704 | 0.1745 | 0.16 and 0.1635 | 88.6 µM (≈ 32 µg/mL) |  | 88.6 µM (≈ 32 µg/mL) | 88.6 µM (≈ 32 µg/mL) | 88.6 µM (≈ 32 µg/mL) | 177 µM (≈ 64 µg/mL) | 88.6 µM (≈ 32 µg/mL) | 88.6 µM (≈ 32 µg/mL) | 709 µM (≈ 256 µg/mL) | 354 µM (≈ 128 µg/mL) |  |  | 177 µM (≈ 64 µg/mL) | 177 µM (≈ 64 µg/mL) | 709 µM (≈ 256 µg/mL)
